Measurements published in patent publication US20110319485A1, “Composition Having Anti-Helicobacter Pylori Activity And Its Application To Inhibit Helicobacter Pylori” (Yushen Biotechnology & Medical Co, Ltd., priority 2010, published 2011).
Converted amounts (≈) assume the structure as drawn. Read-outs that look alike come from different tables or passages of the source. Marks after values point to notes of the source that are not given here.

What was measured:
[1] = tested on: Helicobacter pylori BCRC 17027 strain; test: Minimum bactericidal concentration (MBC), broth dilution; format: cell-based; settings: broth dilution assay, 1 hour exposure in Brucella broth, then plated 72 hours, means of three experiments
Helicobacter pylori = settings: A Vasquez et al., 1996; cited from earlier work
[2] = tested on: Helicobacter pylori BCRC 17027 strain; test: Minimum inhibitory concentration (MIC), agar-dilution method; format: cell-based; settings: BCRC17027, agar dilution assay, TSA with 5% sheep blood, 72 hours, 37° C.
Protocol: H. pylori BCRC 17027 was obtained from the Bioresources Collection and Research Center (BCRC), Hsinchu, Taiwan, ROC. The H. pylori strain was cultured in 5 mL tryptic soy broth (TSB, each liter containing: 17 g peptone from casein, 3 g peptone from soymeal, 2.5 g dextrose, 5 g sodium chloride, 2.5 g dipotassium phosphate, pH 7.3) with a tryptic soy agar (TSA, each liter containing: 15 g peptone from casein, 5 g peptone from soymeal, 5 g sodium chloride, 15 g agar, pH 7.3) and slant containing 5% (v/v) of defibrinated sheep blood formed at the bottom of the test tube.
The broth was incubated in a microaerophilic jar system (BBL), featuring a gas composition of 5% O2, 10% CO2 and 85% N2 (BD GasPak™ EZ Gas Generating systems), at 37° C. for 72 hours. The cell suspension was then diluted with TSB to provide a cell concentration of 3×10^8 CFUs/mL for antimicrobial testing.
The MIC of the purified substance was determined by the agar-dilution method (Shungu et al., 1987, Antimicrob Agents Chemother, 31: 949-950). A volume of 40 μL of cell suspension (initial bacterial count 3×10^8 CFUs/mL) was spread onto the TSA agar plates containing 5% (v/v) defibrinated sheep blood. […] DMSO was used as control. Metronidazole (MTZ) and clarithromycin (CLA) were co-assayed as the positive reference at concentrations of 8.0-128.0 μg/mL and 0.008-0.128 μg/mL, respectively. Following incubation in a microaerophilic jar system, featuring a gas composition of 5% O2, 10% CO2 and 85% N2, at 37° C. for 72 hours, the colonies that had formed on the plates were enumerated. The MIC was defined as the minimum concentration of the test sample (antibacterial agent) in a given culture medium on which bacteria are not able to form colonies.

H. pylori BCRC 17027 = test: Inhibitory-zone measurement (agar well diffusion assay); format: cell-based, Helicobacter pylori; settings: for zone of inhibition at 40000 µg/mL: Helicobacter pylori, BCRC17027, 72 h, read-out: The diameter of inhibitory-zone
Protocol: H. pylori BCRC 17027 was obtained from the Bioresources Collection and Research Center (BCRC), Hsinchu, Taiwan, ROC. […] The cell suspension was then diluted with TSB to provide a cell concentration of 3×10^8 CFUs/mL for antimicrobial testing. An agar well diffusion assay was used to determine if H. pylori was susceptible to the anti-bacterial activity of the various fractions and isolates (al Somal et al., 1994, J R Soc Med, 87: 9-12). A volume of 100 μL for each of the bacterial suspensions tested (3×10^8 CFUs/mL) was spread onto the TSA agar plate containing 5% (v/v) defibrinated sheep blood. Wells sized 7 mm in diameter were punched on the plates with 5 μL of the Fr1-Fr5 and ovatodiolide (40 mg/mL; DMSO as solvent) to be individually incorporated into the wells. DMSO was used as negative control and metronidazole (MTZ, 40 mg/mL) was used as positive control.

[3] = Helicobacter pylori, BCRC17027, read-out: MBC
[4] = 5 μL of 40 mg/mL in DMSO per 7 mm well (200 μg/disk), 72 hours, 37° C., microaerophilic, mean±S.D.

| Compound | MBC [1, 3] [µg/mL] | minimum inhibitory concentration of known antibiotics (Helicobacter pylori) [µg/mL] | MIC [2] [µg/mL] | zone of inhibition at 40000 µg/mL (H. pylori BCRC 17027; [4]) [mm] | Anti-Helicobacter pylori activity in inhibitory-zone assay (in words) (H. pylori BCRC 17027; agar well diffusion) | MBC [1] | The diameter of inhibitory-zone (H. pylori BCRC 17027; [4]) [mm] |
| --- | --- | --- | --- | --- | --- | --- | --- |
| CC[C@H]1OC(=O)[C@H](C)[C@@H](O[C@H]2C[C@@](C)(OC)[C@@H](O)[C@H](C)O2)[C@H](C)[C@@H](O[C@@H]2O[C@H](C)C[C@H](N(C)C)[C@H]2O)[C@](C)(OC)C[C@@H](C)C(=O)[C@H](C)[C@@H](O)[C@]1(C)O [Clarithromycin] | 1 (≈ 1.34 µM) | 0.25 | 0.032 (≈ 0.0428 µM) | – | – | – | – |
| Cc1ncc([N+](=O)[O-])n1CCO [Metronidazole] | 2560 (≈ 15000 µM) | 64 | 64 (≈ 374 µM) | 21.8 ± 3.1 | inhibition halos smaller than ovatodiolide | – | – |
| C=C1C(=O)OC2/C=C(\C)C[C@H]3C=C(CC/C=C(\C)CC[C@H]12)C(=O)O3 (stereo partly shown) [Ovatodiolide, ovatodiolide] | 80 (≈ 244 µM) | – | 16 (≈ 48.7 µM) | 34 | – | 80^b μg/mL | 34.4 ± 2.0 |
